The values that follow come from patent US20050031679A1, “Method for producing liposomal formulations of active ingredients” (priority 1998, published 2005).

The nature of this data set: Efficiency of inclusion of active ingredient added subsequently to a finished liposome gel. The format is physicochemical. The source says: This object is achieved by a method for producing liposomes which comprise as active ingredient at least one physiologically active or/and diagnostic compound, by production of a mixture of membrane-forming amphiphiles, dispersion of the mixture in water and high pressure homogenization of the dispersion until the liposomes are formed, which comprises • (a) adding the active ingredient to any liposome preparation, preferably a liposome gel, which contains at least 20% by weight lipid, and • (b) incubating the active ingredient-containing mixture, where appropriate with mechanical agitation, until • (i) hydrophilic active ingredients are distributed in the liposomes and between the liposomes in accordance with the proportions by volume of aqueous medium inside and outside the liposomes in the preparation (equilibrium state) or • (ii) lipophilic compounds are incorporated in the lipid bilayer, or • (iii) amphiphilic compounds have surmounted the lipid bilayer and are incorporated or associated in the outer regions of the lipid bilayer.
A liposome gel which contains the cytostatic gemcitabine as active component cannot be autoclaved because this antitumor agent promotes the hydrolysis of the phospholipids, leading to complete phospholipid degradation under standard conditions during autoclaving. […]

SMILES strings stand for the structures.

As for `C[C@@H]1[C@H](O)[C@@H](C)/C=C/C=C/C=C/C=C/C=C/C=C/C=C/[C@H](O[C@@H]2O[C@H](C)[C@@H](O)[C@H](N)[C@@H]2O)C[C@@H]2O[C@](O)(C[C@@H](O)C[C@@H](O)[C@H](O)CC[C@@H](O)C[C@@H](O)CC(=O)O[C@H]1C)C[C@H](O)[C@H]2C(=O)O` [amphotericin B], the efficiency of inclusion (added as solid substance to the liposome gel, incubated with shaking at 50° C. for 3 hours) stood at 95%. Turning to `Nc1ccn([C@@H]2O[C@H](CO)[C@@H](O)C2(F)F)c(=O)n1` [gemcitabine], the efficiency of inclusion entry (autoclaved liposome gel mixed with concentrated buffered gemcitabine solution, incubation at 60° C. for four hours (equilibrium)) is given as “more than 30%”.
